Literature values in patent US8691302B2, “Peptide-containing seasoning” (Kikkoman Corporation, priority 2008, dated 2014).

Experiments:
[1] = reported in Non-patent Reference 1
[2] = biological target: angiotensin converting enzyme (Homo sapiens, UniProt P12821); details: reported in Non-patent Reference 1
angiotensin converting enzyme, sequence (P12821 30-1306, species assumed): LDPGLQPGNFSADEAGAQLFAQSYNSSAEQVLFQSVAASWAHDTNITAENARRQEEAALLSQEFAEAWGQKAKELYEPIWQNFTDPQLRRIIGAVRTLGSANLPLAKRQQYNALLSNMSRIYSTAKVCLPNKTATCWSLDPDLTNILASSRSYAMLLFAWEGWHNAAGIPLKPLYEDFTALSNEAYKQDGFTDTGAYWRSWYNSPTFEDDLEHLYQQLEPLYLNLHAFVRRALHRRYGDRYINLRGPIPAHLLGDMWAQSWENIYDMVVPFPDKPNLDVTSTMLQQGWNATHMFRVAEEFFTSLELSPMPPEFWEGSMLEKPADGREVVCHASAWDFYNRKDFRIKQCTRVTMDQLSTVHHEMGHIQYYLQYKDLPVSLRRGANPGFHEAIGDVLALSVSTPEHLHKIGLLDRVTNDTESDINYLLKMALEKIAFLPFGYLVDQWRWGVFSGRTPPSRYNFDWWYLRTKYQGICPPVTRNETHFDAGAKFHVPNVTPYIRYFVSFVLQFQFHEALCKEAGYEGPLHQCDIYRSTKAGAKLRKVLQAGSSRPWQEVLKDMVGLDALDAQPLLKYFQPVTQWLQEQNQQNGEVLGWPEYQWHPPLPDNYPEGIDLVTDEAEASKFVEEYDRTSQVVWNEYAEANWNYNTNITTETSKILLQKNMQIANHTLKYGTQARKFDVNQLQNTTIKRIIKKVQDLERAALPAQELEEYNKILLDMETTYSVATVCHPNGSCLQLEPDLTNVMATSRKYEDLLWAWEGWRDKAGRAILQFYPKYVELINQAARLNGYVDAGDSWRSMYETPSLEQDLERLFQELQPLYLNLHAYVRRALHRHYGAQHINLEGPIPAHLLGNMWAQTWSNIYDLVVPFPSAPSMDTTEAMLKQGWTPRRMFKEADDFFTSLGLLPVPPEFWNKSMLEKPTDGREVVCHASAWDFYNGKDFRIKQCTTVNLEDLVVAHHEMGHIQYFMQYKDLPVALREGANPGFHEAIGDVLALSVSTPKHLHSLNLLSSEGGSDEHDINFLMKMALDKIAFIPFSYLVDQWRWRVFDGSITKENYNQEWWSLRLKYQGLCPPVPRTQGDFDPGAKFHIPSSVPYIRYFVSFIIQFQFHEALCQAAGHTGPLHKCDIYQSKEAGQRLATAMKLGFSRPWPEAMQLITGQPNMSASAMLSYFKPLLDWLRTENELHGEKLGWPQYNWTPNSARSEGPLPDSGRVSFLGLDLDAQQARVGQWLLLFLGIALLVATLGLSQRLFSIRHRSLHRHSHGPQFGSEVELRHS

| Substance | hypotensive activity [1] | angiotensin converting enzyme inhibitory activity [2] |
| --- | --- | --- |
| Gly-Tyr | a hypotensive activity | have an angiotensin converting enzyme inhibitory activity |
| Ser-Tyr | a hypotensive activity | have an angiotensin converting enzyme inhibitory activity |
